# Laboratory results: ChEMBL document CHEMBL1201862, “PubChem BioAssay data set” (2004)
#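 Tested at 5 concentrations; 48 h exposure; 96-well plates; endpoints linearly interpolated, else capped at highest concentration. GI50 is the concentration that inhibits growth by half.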 Activity calls are given as the source filed them. Rule as the data show it: active = GI50 up to about 1.1 µM and inactive = higher.
# Legend:
# Assay in all cases: growth of human tumour cells (NCI), 48 h
# ACHN = tested on: ACHN
# CAKI-1 = tested on: CAKI-1
# CCRF-CEM = tested on: CCRF-CEM
# DLD-1 = tested on: DLD-1
# HCT-15 = tested on: HCT-15
# HL-60 = tested on: HL-60
# HOP-92 = tested on: HOP-92
# IGROV-1 = tested on: IGROV-1
# K562 = tested on: K562
# KM12 = tested on: KM12
# M14 = tested on: M14
# MDA-MB-231 = tested on: MDA-MB-231
# NCI-H460 = tested on: NCI-H460
# NCI/ADR-RES = tested on: NCI/ADR-RES
# OVCAR-8 = tested on: OVCAR-8
# RPMI-8226 = tested on: RPMI-8226
# RXF 393 = tested on: RXF 393
# SF-268 = tested on: SF-268
# SW-620 = tested on: SW-620
# SR = tested on: SR
SMILES,GI50 (ACHN),GI50 (CAKI-1),GI50 (CCRF-CEM),GI50 (DLD-1),GI50 (HCT-15) [µM],GI50 (HL-60),GI50 (HOP-92),GI50 (IGROV-1),GI50 (K562),GI50 (KM12),GI50 (M14),GI50 (MDA-MB-231),GI50 (NCI-H460),GI50 (NCI/ADR-RES),GI50 (OVCAR-8),GI50 (RPMI-8226),GI50 (RXF 393),GI50 (SF-268),GI50 (SW-620),GI50 (SR)
C/C(=N\N=C(/S)N1CC2CCC(CC2)C1)c1cccc[n+]1[O-],5 µM (inactive),9.14 µM (inactive),0.238 µM (active),2.06 µM (inactive),1.8,0.23 µM (active),13.2 µM (inactive),17.9 µM (inactive),0.228 µM (active),4.56 µM (inactive),6.15 µM (inactive),19.5 µM (inactive),8.09 µM (inactive),3.09 µM (inactive),6.44 µM (inactive),0.381 µM (active),13.7 µM (inactive),11.8 µM (inactive),4.35 µM (inactive),–
CC(C)NC(=O)O/N=C1\CCC2[C@@H]3CC=C4C[C@@H](OC(=O)NC(C)C)CC[C@]4(C)C3CC[C@]12C (stereo not given in full),0.971 µM (active),1.44 µM (inactive),1.24 µM (inactive),2.53 µM (inactive),1.43,0.632 µM (active),2.08 µM (inactive),1.87 µM (inactive),0.953 µM (active),1.68 µM (inactive),0.627 µM (active),–,1.38 µM (inactive),–,1.75 µM (inactive),0.695 µM (active),1.53 µM (inactive),1.49 µM (inactive),1.79 µM (inactive),1.2 µM (inactive)
COC[C@@H](/N=C/N1CCc2cc(OC)c(OC)cc2[C@@H]1C)C(C)(C)C,> 100 µM (inactive),> 100 µM (inactive),> 100 µM (inactive),> 100 µM (inactive),> 100,> 100 µM (inactive),> 100 µM (inactive),> 100 µM (inactive),> 100 µM (inactive),> 100 µM (inactive),> 100 µM (inactive),–,> 100 µM (inactive),–,> 100 µM (inactive),> 100 µM (inactive),> 100 µM (inactive),> 100 µM (inactive),> 100 µM (inactive),> 100 µM (inactive)
C/C(=N\NC(=S)N1CCN(c2ccccn2)CC1)c1ccccn1,< 0.0239 µM (active),0.0467 µM (active),0.00337 µM (active),0.000509 µM (active),0.0219,–,0.0776 µM (active),0.00151 µM (active),0.00296 µM (active),0.129 µM (active),0.0431 µM (active),0.0495 µM (active),0.252 µM (active),–,0.00281 µM (active),0.00681 µM (active),0.4 µM (active),0.193 µM (active),0.017 µM (active),0.0522 µM (active)
Cc1cc(O)nc(NNC(C#N)c2ccc([N+](=O)[O-])cc2)n1 (stereo not given),74.8 µM (inactive),33.4 µM (inactive),> 100 µM (inactive),> 100 µM (inactive),> 100,63.4 µM (inactive),> 100 µM (inactive),76.9 µM (inactive),> 100 µM (inactive),84.9 µM (inactive),> 100 µM (inactive),–,> 100 µM (inactive),–,> 100 µM (inactive),> 100 µM (inactive),93.8 µM (inactive),> 100 µM (inactive),95.3 µM (inactive),26.3 µM (inactive)
NCc1ccc(O)c(O)c1O,23.4 µM (inactive),29.3 µM (inactive),10.9 µM (inactive),20.3 µM (inactive),24.7,30.3 µM (inactive),> 58.6 µM (inactive),38.9 µM (inactive),23.6 µM (inactive),24.3 µM (inactive),14.3 µM (inactive),19.7 µM (inactive),18.5 µM (inactive),–,23.9 µM (inactive),26.9 µM (inactive),40.7 µM (inactive),28.3 µM (inactive),20 µM (inactive),30.1 µM (inactive)
